The values below come from paper PMC6930522, “Structure-Based Pharmacophore Modeling, Virtual Screening, Molecular Docking and Biological Evaluation for Identification of Potential Poly (ADP-Ribose) Polymerase-1 (PARP-1) Inhibitors” (Molecules, 2019).

Assay [1] has as its system human lung cancer A549 cells. In words: MTT assay, proliferation of A549 cells. Type of assay: cell-based. As to conditions: 48 h, different concentrations, Figure 5. Here is the method: A549 cells were seeded in a 96-well culture plate and allowed to grow overnight. Then, cells were exposed to different concentrations of compounds 1–4 and incubated at 37 °C for 48 h. After that, an MTT stock solution (0.5 mg/mL) was added into each well and the plate was incubated for 4 h. The 150 µL of DMSO was used for fixing the MTT-treated cells and the absorbance of each sample was recorded at 490 nm with a Microplate Spectrophotometer.
Background: Formazan colour is commonly taken as a measure of viable cells.

The target in another assay is T1, PARP-3 (Homo sapiens, UniProt Q9Y6F1).
T1 construct: purchased Trevigan (Gaithersburg, MD, USA)
T1 sequence (Q9Y6F1 1-533): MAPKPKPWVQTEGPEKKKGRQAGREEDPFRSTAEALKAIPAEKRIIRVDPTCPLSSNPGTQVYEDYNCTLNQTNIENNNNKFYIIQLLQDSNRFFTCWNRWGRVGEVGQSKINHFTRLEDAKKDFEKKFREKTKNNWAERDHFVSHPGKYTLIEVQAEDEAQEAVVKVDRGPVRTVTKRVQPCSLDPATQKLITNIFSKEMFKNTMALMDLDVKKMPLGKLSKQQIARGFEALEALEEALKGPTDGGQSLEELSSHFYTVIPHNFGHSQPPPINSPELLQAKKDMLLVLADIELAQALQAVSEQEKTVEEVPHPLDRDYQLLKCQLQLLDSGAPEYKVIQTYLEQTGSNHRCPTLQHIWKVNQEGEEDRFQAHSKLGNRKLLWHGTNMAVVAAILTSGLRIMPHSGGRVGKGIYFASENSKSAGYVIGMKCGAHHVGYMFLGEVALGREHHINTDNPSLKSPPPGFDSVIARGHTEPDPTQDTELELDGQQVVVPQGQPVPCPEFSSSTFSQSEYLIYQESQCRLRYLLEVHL
In words: In vitro PARP inhibition assay (PARP-3). In kind it is biochemical. As to conditions: Table 4. As for the experimental part: (§1) Purified recombinant human PARPs from Trevigan (Gaithersburg, MD, USA) was used to determine the IC50 values of a PARP inhibitor. The PARP enzyme assay was set up on ice in a volume of 100 μL consisting of 50 mM Tris–HCl (pH 8.0), 2 mM MgCl2, 30 μg/mL of DNase activated herring sperm DNA (Sigma, MO, USA), 30 μM [^3H]nicotinamide adenine dinucleotide (67 mCi/mmol), 75 μg/mL PARP enzyme and various concentrations of the compounds to be tested. The reaction was initiated by incubating the mixture at 25 °C. After 15 min of incubation, the reaction was terminated by adding 500 μL of ice cold 20% (w/v) trichloroacetic acid. The formed precipitate was transferred onto a glass fiber filter (Packard Unifilter–GF/B) and washed three times with ethanol. After the filter is dried, the radioactivity is determined by scintillation counting.

For the next assay, the target named is T2, PARP-2 (Homo sapiens, UniProt Q9UGN5).
T2 construct: purchased Trevigan (Gaithersburg, MD, USA)
T2 sequence (Q9UGN5 whole entry): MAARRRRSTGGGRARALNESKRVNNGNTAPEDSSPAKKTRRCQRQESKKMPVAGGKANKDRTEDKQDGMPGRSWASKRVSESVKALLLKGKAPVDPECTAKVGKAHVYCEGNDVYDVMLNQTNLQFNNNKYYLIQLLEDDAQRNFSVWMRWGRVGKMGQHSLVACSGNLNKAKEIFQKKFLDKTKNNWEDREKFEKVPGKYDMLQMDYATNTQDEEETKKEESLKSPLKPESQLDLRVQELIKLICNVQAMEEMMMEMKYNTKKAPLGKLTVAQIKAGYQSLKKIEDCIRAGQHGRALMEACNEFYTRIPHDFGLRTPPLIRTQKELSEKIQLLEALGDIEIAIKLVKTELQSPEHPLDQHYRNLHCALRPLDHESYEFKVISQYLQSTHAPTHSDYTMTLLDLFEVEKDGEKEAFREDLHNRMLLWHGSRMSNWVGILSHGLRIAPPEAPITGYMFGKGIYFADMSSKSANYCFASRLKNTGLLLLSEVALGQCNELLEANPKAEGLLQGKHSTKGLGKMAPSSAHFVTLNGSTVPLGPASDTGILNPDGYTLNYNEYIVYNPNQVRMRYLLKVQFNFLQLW
In words: In vitro PARP inhibition assay (PARP-2). In kind it is biochemical. Here is the method:
as §1

The next assay deals with T3, PARP-1 (Homo sapiens, UniProt P09874).
T3 construct: purchased Trevigan (Gaithersburg, MD, USA)
T3 sequence (P09874 whole entry): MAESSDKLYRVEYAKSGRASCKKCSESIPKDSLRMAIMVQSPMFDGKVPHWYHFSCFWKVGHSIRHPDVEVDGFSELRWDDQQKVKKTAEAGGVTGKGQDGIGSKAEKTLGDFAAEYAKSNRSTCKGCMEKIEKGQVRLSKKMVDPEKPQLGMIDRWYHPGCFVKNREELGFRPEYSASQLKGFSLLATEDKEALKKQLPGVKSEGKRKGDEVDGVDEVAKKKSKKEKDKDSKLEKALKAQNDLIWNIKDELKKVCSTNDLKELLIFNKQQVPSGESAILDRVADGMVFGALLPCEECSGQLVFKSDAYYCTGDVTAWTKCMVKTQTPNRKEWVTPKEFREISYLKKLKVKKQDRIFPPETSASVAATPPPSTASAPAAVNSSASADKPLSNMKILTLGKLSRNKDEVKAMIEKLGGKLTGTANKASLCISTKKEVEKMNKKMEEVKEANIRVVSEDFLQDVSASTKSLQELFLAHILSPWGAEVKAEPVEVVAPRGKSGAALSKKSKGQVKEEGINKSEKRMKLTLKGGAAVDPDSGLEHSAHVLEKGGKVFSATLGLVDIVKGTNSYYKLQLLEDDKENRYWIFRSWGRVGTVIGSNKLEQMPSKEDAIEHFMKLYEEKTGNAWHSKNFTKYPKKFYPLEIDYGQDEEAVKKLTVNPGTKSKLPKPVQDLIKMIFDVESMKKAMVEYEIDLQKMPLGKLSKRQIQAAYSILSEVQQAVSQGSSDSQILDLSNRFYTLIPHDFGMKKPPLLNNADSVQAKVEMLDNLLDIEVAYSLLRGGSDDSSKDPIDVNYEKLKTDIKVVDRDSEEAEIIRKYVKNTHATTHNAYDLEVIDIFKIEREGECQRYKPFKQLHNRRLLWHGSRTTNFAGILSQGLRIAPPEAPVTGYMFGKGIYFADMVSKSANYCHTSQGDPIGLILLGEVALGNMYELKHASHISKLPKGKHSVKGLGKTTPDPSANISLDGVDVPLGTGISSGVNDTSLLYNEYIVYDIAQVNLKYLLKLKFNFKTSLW
In words: In vitro PARP inhibition assay (PARP-1). In kind it is biochemical. As to conditions: Table 3; PARP-1 enzyme assay, mean ± SD, three independent experiments. Here is the method: as §1

Read-outs that look alike come from different tables or passages of the source. Bounds are passed on as bounds.

Consider `NC(=O)c1cccc2c1C(=O)N(C1CCN(Cc3ccc(F)cc3)CC1)C2` [Compound 1], for which the “Inhibition of growth/proliferation of A549 cells” value in assay [1] was “stronger anti-proliferation effects than compounds 2 and 3”. Also, the IC50 against PARP-3 is greater than 100000 nM; against PARP-2, greater than 35000 nM.
`CN(C)CCNc1ccc2[nH]c(=O)c3ccccc3c2n1` [Compound 2] displayed an IC50 against PARP-1 of 190 ± 26 nM.
With `CC(=O)Nc1cccc(Cn2c(=O)[nH]c(=O)c3ccccc32)c1` [Compound 3], at PARP-1, the IC50 was 160 ± 13 nM.
`CCc1ccc(-c2nc3cccc4c3n2CCNC4=O)cc1` [Compound 4]: the “Inhibition of growth/proliferation of A549 cells” value in assay [1] was “stronger anti-proliferation effects than compounds 2 and 3”. The IC50 is 65 ± 8 nM on PARP-1; greater than 100000 nM against PARP-3; greater than 35000 nM at PARP-2 (Table 4, read-out: PARP-2). Further, the PARP-2/PARP-1 at PARP-2 (selectivity ratio of IC50 values) was greater than 1000.
On to `Cc1nc2c(O)cccc2c(=O)[nH]1` [NU1025, reference compound], for which, on PARP-1, the IC50 came to 400 ± 35 nM.
